Test results taken from EP0378285A1, “Substituted alkenes, processes for their preparation and their use as pesticides” (priority 1989, dated 1990).

How the values were obtained:
Type in all cases: in vivo
[1] = tested on: two spotted mite (Tetranychus urticae Koch); assay: Use Example C: activity in the prophylactic treatment of feed against the two spotted mite; conditions: foliar, 0.1 % aqueous preparation, field bean leaf discs, adults and eggs counted after 3 days at 25 C, larvae after a further 7 days, Abbott's method
Description: Activity in the prophylactic treatment of feed against the two spotted mite (Tetranychus urticae Koch)
From the primary leaf of field beans (Phaseolus vulgaris nanus Aschers.) 14 mm diameter discs were cut. Some of these were treated with a 0.1 % aqueous preparations of compounds of the invention and these along side untreated discs were placed on filter papers with the underside of the leaves turned upwards. After drying the test pieces, they were each infested with six adult female Tetranychus urticae and maintained for 3 days at 25 C and 16 hours light per day. The experiment was replicated 4 times. Dead and alive adults were then counted and removed. Similarly the number of eggs laid were counted. After a further 7 days, the number of living larvae were counted, the activity calculated using Abbott's method in comparison with the untreated controls.

[2] = tested on: corn rootworm (Diabrotica undecimpunctata); assay: Use Example D: activity against eggs/larvae of the corn rootworm; conditions: 168 h; for mortality at 0.1 %: Diabrotica undecimpunctata, aqueous emulsion 0.1%, 0.2 ml pipetted into soil, 7 days at 25 C, death of eggs or newly hatched larvae; for activity: corn rootworm, in vivo
Description: Activity against eggs/larvae of the corn rootworm (Diabrotica undecimpunctata)
The compounds of the invention were made up as aqueous emulsions at a concentration of 0.1%. Into the soil in polystyrene petri dishes, containing maize seedlings (1 seedling/dish) and ca. 50 eggs of the corn rootworm (Diabrotica undecimpunctata) were pipetted 0.2 ml of these preparations. The closed dishes were left at 25 C under extended daylight conditions for 7 days. The criterion for judging the activity was the death of eggs or newly hatched larvae at the end of the test.

Aphis fabae = assay: Activity in prophylactic treatment of leaf discs against Aphis fabae; conditions: 48 h; for mortality at 0.1 %: Aphis fabae, foliar, 0.1% aqueous preparation, field bean leaf discs infested with wingless stages, 2 days at 25 C, percentage mortality, Abbott's method
Description: From the primary leaf of field beans (Phaseolus vulgaris nanus Aschers.), 24 mm diameter discs were cut. Some of these were treated with a 0.1% aqueous preparations of compounds of the invention and these along side untreated discs were placed on filter papers with the underside of the leaves turned upwards. After drying the test pieces, they were each infested with wingless stages of Aphis fabae (approx 100 per leaf piece). The experiment was replicated 3 times. The leaves were kept on wet filter papers for 2 days at 25 C and 16 hours light per day. The percentage mortality was then estimated and the activity calculated using Abbott's method in comparison with the untreated controls.

[3] = tested on: cotton bollworm (Heliothis viriscens); assay: whole plant or invertebrate; conditions: 48 h, read-out: activity
Description: Activity against larvae (L1) of the cotton bollworm (Heliothis viriscens)
Compounds of the invention were made up as aqueous preparations at a concentration of 0.1 %. Into these, feed material was dipped for 2 seconds. After drying the feed material was put into into polystyrene petri dishes. After an hour, 10 L1 of the cotton bollworm (Heliothis viriscens) were counted into the dishes. The closed dishes were left for up to 7 days at 25 °C under extended daylight conditions. The % mortality of the larvae after two days indicated the level of activity.

[4] = tested on: brown rice-hoppers (Niliparvata lugens Stal); assay: Use Example B: activity in prophylactic treatment of leaves against brown rice-hoppers; conditions: 48 h; for mortality at 0.1 %: read-out: activity
Excerpt: Activity in prophylactic treatment of leaves against brown rice-hoppers (Niliparvata lugens Stal)
Rice seedlings (Oryzae sativa L.) in the two leaf stage (about 10 per polystyrene pot of size 6.5 x 6.5 cm) were either untreated or […] until dripping wet, with an aqueous preparation containing 0.1 % of active material. After drying the sprayed leaves, a transparent cylinder was placed over each pot and through an opening, about 30 brown rice-hoppers (Niliparvata lugens) in the 4-5 stage, anaesthetised with carbon dioxide, were introduced into each pot. After closing the opening with a fine mesh screen, the pots were kept for 2 days at 28° C and 16 hours/day of light in the glasshouse, the amount of dead hoppers was determined. The percentage mortality was then estimated and the activity calculated using Abbott's method in comparison with the untreated controls.

[5] = tested on: house fly (Musca domestica); assay: Use Example J: activity against house fly; conditions: adult houseflies on treated filter papers; 22 C for 24 hours
Description: Activity against house fly (Musca domestica)
Aliquots (0.7 ml) of acetone solutions or suspensions of test compounds at various concentrations were applied to filter papers (9 cm diameter) placed in the bottom of petri dishes (9 cm diameter) closed by glass lids. After evaporation of solvent, the treated surfaces, together with controls treated with acetone alone, were then infested with adult houseflies, (Musca domestica) and held at 22 C for 24 hours. The percentage mortality of the insects was then recorded.

[6] = tested on: Sheep blowfly (Lucilia sericata); assay: whole plant or invertebrate; conditions: 24 h, read-out: LCso
Description: Activity against Sheep blowfly (Lucilia sericata)
1 ml aliquots of acetone solutions or suspensions, containing test compound at various concentrations, were applied to cotton wool dental rolls (1 cm x 2 cm), contained in glass vials 2 cm diameter x 5 cm long. After drying, the treated materials were then impregnated with 1 ml of nutrient solution, infested with approximately 30 first instar larvae of sheep blow fly (Lucilia sericata), closed by a cotton wool plug and held at 25 C for 24 hours.

[7] = tested on: cotton army worm (Spodoptera littoralis); assay: Use Example F: ovicidal activity against eggs of the cotton army worm; conditions: aqueous preparation 0.1 %; one day old eggs dipped; four days; % inhibition of hatching of the eggs
Excerpt: Ovicidal activity against eggs of the cotton army worm (Spodoptera littoralis).
The compounds of the invention were made up as aqueous preparations at a concentration of 0.1 %. One day old eggs that had been laid on filter paper by fertilised female moths were dipped in the preparations until they were completely wet and then placed in closed petri dishes in the laboratory under extended daylight conditions for four days. The % inhibition of hatching of the eggs in comparison with untreated eggs indicates the level of activity.

Boophilus microplus = assay: whole plant or invertebrate; conditions: Rhipicephalus microplus, 48 h, read-out: concentration causing 50% mortality
Description: Tickicidal activity against Boophilus microplus
9 cm diameter filter papers were impregnated with 1 ml aliquots of acetone solutions of test compound at various concentrations. The papers were allowed to dry and then folded into envelopes in which cattle tick larvae, (Boophilus microplus) were enclosed and held at 25°C and 80% R.H. for 48 hours. The percentage mortality of tick larvae was then recorded and compared with controls.

[8] = tested on: corn rootworm (Diabrotica undecimpunctata); assay: Use Example E: soil insecticide activity against eggs/larvae of the corn rootworm; conditions: aqueous preparation 0.0025%, 5 ml into 50 cm^3 earth, 10 days at 25 C
Description: Soil insecticide activity against eggs/larvae of the corn rootworm (Diabrotica undecimpunctata)
5 ml of these preparations were pipetted into 300 ml clear plastic beakers, containing 50 cm^3 earth and ca. 50 Diabrotica eggs, as well as 2 presoaked maize seeds. The sealed pots were left for 10 days under extended daylight conditions at 25 C. The criterion for judging the activity after 10 days was the larvicidal activity and the root growth of the emerging maize plants in the treated pots in comparison with untreated controls.

Q: Which mortality at 0.1 % [1] does the source give for C=C(Br)C(C)(C)COCc1cccc(Oc2ccccc2)c1 [Example 7, 2-bromo-3,3-dimethyl-4-(3-phenoxy-benzyloxy)-1-butene] here?
A: 80 to 100%

Q: And the mortality at 0.1 % [2]?
A: 80 to 100%

Q: What about the mortality at 0.1 % (Aphis fabae) of the same compound?
A: ≥ 80%

Q: Which mortality at 0.1 % [1] does the source give for CC(C)(COCc1ccc(F)c(Oc2ccccc2)c1)C1=CCCC1 [Example 10, 2-(cyclopenten-1-yl)-1-(4-fluoro-3-phenoxybenzyloxy)-2-methylpropane] here?
A: 80 to 100%

Q: What about the mortality at 0.1 % (Aphis fabae) of the same compound?
A: ≥ 80%

Q: What about the mortality at 0.1 % [3] of the same compound?
A: 80 to 100%

Q: What does the source list for C=C(C(C)C)C(C)(C)COCc1ccc(F)c(Oc2ccccc2)c1 [Example 26]?
A: activity [2]: 80-100%; activity (Aphis fabae; aphis fabae, in vivo): ≥ 80%

Q: CC(C)(COCc1c(F)c(F)c(F)c(F)c1F)C1=CCCC1 [Example 62, 2-(cyclopenten-1-yl)-2-methyl-1-(2,3,4,5,6-pentafluorobenzyloxy)propane] was tested. Which mortality at 0.1 % [3] did it give?
A: 80 to 100%

Q: C=C(c1ccccc1)C(C)(C)COCc1cccc(-c2ccccc2)c1C [Example 15, 3,3-dimethyl-4-(2-methyl-3-phenyl-benzyloxy)-2-phenyl-1-butene] was tested. Which mortality at 0.1 % [1] did it give?
A: 80 to 100%

Q: With C=C(C)C(C)(C)COCc1cccc(Oc2cccc(C(F)(F)F)c2)c1 [Example 24, 4-[3-(3-trifluoromethylphenoxy)-benzyloxy]-2,3,3-trimethyl-1-butene] as the compound, how does the mortality at 0.1 % [4] read?
A: ≥ 80%

Q: Which results are given for C=C(I)C(C)(C)CCCc1cccc(Oc2ccccc2)c1 [Example 63, 3,3-dimethyl-2-iodo-6-(3-phenoxy-phenyl)-1-hexene]?
A: mortality at 0.1 % [4]: ≥ 80%; mortality at 0.1 % [3]: 80 to 100%

Q: CC(C)(COCc1cccc(Oc2ccccc2)c1)C1=CCCCC1 [Example 8, 2-(cyclohexen-1-yl)-2-methyl-1-(3-phenoxybenzyloxy)propane] was tested. Which mortality at 0.1 % [2] did it give?
A: 80 to 100%

Q: What about the mortality at 0.1 % [3] of the same compound?
A: 80 to 100%

Q: What does the source list for C=C(C)C(C)(C)CCCc1cccc(Oc2ccccc2)c1 [Example 1, 6-(3-Phenoxyphenyl)-2,3,3,-trimethyl-1-hexene]?
A: activity ([4]; brown rice-hopper, in vivo): ≥ 80%; activity [2]: 80-100%

Q: What does the source list for C=C(C)C1(COCc2ccc(F)c(Oc3ccccc3)c2)CC1 [Example 51, 2-(4-fluoro-3-phenoxybenzyloxy-methyl)-2-isopropenylcyclopropane]?
A: mortality at 0.1 % [4]: ≥ 80%; mortality at 0.1 % [2]: 80 to 100%; mortality at 0.1 % (Aphis fabae): ≥ 80%

Q: For C=C(Br)C(C)(C)COCc1ccc(F)c(Oc2ccccc2)c1 [Example 59, 2-bromo-3,3-dimethyl-4-(4-fluoro-3-phenoxybenzyloxy)-1-butene], which mortality at 0.1 % [1] is on record?
A: 80 to 100%

Q: What about the mortality at 0.1 % [4] of the same compound?
A: ≥ 80%

Q: And the mortality at 0.1 % [2]?
A: 80 to 100%

Q: And the mortality at 0.1 % (Aphis fabae)?
A: ≥ 80%

Q: What about the mortality at 0.1 % [3] of the same compound?
A: 80 to 100%

Q: How did the LDso [5] turn out when C=C(C)C(C)(C)COCc1ccc(F)c(Oc2ccccc2)c1 [Example 5, 4-(4-fluoro-3-phenoxybenzyloxy)-2,3,3-trimethyl-1-butene] was run?
A: less than 1000 mg/m^2

Q: And the mortality at 0.1 % [1]?
A: 80 to 100%

Q: What about the LC50 [6] of the same compound?
A: < 300 µg/mL

Q: What about the activity [7] of the same compound?
A: 80 - 100%

Q: What about the mortality at 0.1 % [2] of the same compound?
A: 80 to 100%

Q: And the LC50 (Boophilus microplus)?
A: ≤ 100 µg/mL

Q: What about the mortality at 0.1 % (Aphis fabae) of the same compound?
A: ≥ 80%

Q: And the mortality at 0.1 % [3]?
A: 80 to 100%

Q: CC(C)(COCc1ccc(F)c(Oc2ccccc2)c1)C1=CCCCC1 [Example 2, 2-(Cyclohexen-1-yl)-2-methyl-1-(4-fluoro-3-phenoxybenzyloxy)propane] was tested. Which mortality at 0.1 % [4] did it give?
A: ≥ 80%

Q: What about the mortality at 0.1 % [2] of the same compound?
A: 80 to 100%

Q: What about the mortality at 0.1 % (Aphis fabae) of the same compound?
A: ≥ 80%

Q: Which results are given for C=C(C)C(C)(C)COCc1cccc(Oc2ccc(Cl)cc2)c1 [Example 21, 4-[3-(4-chlorophenoxy)benzyloxy]-2,3,3-trimethyl-1-butene]?
A: mortality at 0.1 % [1]: 80 to 100%; mortality at 0.1 % [4]: ≥ 80%; mortality at 0.1 % [2]: 80 to 100%; mortality at 0.1 % (Aphis fabae): ≥ 80%

Q: Which mortality at 0.1 % [1] does the source give for C=C(I)C(C)(C)COCc1ccc(F)c(Oc2ccccc2)c1 [Example 60, 3,3-dimethyl-2-iodo-4-(4-fluoro-3-phenoxybenzyloxy)-1-butene] here?
A: 80 to 100%

Q: And the mortality at 0.1 % [4]?
A: ≥ 80%

Q: And the mortality at 0.1 % (Aphis fabae)?
A: ≥ 80%

Q: C=C(C)C(C)(C)CCCc1ccc(F)c(Oc2ccccc2)c1 [Example 4, 6-(4-fluoro-3-phenoxyphenyl)-2,3,3-trimethyl-1-hexene] was tested. Which mortality at 0.1 % [1] did it give?
A: 80 to 100%

Q: And the activity [7]?
A: 80 - 100%

Q: What about the mortality at 0.1 % [4] of the same compound?
A: ≥ 80%

Q: What about the mortality at 0.1 % [2] of the same compound?
A: 80 to 100%

Q: What about the mortality at 0.1 % (Aphis fabae) of the same compound?
A: ≥ 80%

Q: What about the mortality at 0.1 % [3] of the same compound?
A: 80 to 100%

Q: Which LDso [5] does the source give for C=C(C)C(C)(C)COCc1cccc(Oc2ccccc2)c1 [Example 16, 4-(3-phenoxybenzyloxy)-2,3,3-trimethyl-1-butene] here?
A: less than 1000 mg/m^2

Q: And the LC50 [6]?
A: < 300 µg/mL

Q: And the mortality at 0.0025 % ([8]; Diabrotica undecimpunctata, soil, 240 h, read-out: larvicidal activity)?
A: 90 to 100%

Q: What about the “root growth of the emerging maize plants” value ([8]; in comparison with untreated controls) of the same compound?
A: good root growth

Q: And the mortality at 0.1 % [4]?
A: ≥ 80%

Q: And the LC50 (Boophilus microplus)?
A: ≤ 100 µg/mL

Q: For C=C(c1ccccc1)C(C)(C)COCc1c(F)c(F)c(F)c(F)c1F [Example 61, 3,3-dimethyl-4-(2,3,4,5,6-pentafluoro-benzyloxy)-2-phenyl-1-butene], which mortality at 0.1 % [1] is on record?
A: 80 to 100%

Q: What does the source list for C=C(C)C(C)(C)COCc1cccc(Oc2ccccc2)n1 [Example 17, 4-(6-phenoxypyridin-2-ylmethoxy)-2,3,3-trimethyl-1-butene]?
A: mortality at 0.1 % [4]: ≥ 80%; mortality at 0.1 % [2]: 80 to 100%

Q: C=C(C(C)C)C(C)(C)COCc1cccc(Oc2ccccc2)c1 [Example 25, 3-methylene-5-(3-phenoxy-benzyloxy)-2,4,4-trimethylpentane] was tested. Which mortality at 0.1 % [4] did it give?
A: ≥ 80%

Q: Which mortality at 0.1 % [4] does the source give for CC(C)(COCc1ccc(F)c(Oc2ccccc2)c1)C1=CCOCC1 [Example 44, 1-(4-fluoro-3-phenoxybenzyloxy)-2-methyl-2-(4-oxacyclohexen-1-yl)propane] here?
A: ≥ 80%

Q: Which results are given for C=C(C)C(C)(C)CCCc1cccc(Oc2ccccc2)n1 [Example 18, 6-(6-phenoxypyridin-2-yl)-2,3,3-trimethyl-1-hexene]?
A: mortality at 0.1 % [1]: 80 to 100%; mortality at 0.1 % [4]: ≥ 80%; mortality at 0.1 % [2]: 80 to 100%; mortality at 0.1 % (Aphis fabae): ≥ 80%

Q: With C=C(c1ccccc1)C(C)(C)COCc1ccc(F)c(Oc2ccccc2)c1 [Example 14, 3,3-dimethyl-4-(4-fluoro-3-phenoxy-benzyloxy)-2-phenyl-1-butene] as the compound, how does the mortality at 0.1 % [4] read?
A: ≥ 80%
